Test results published in patent publication US20220107328A1, “METHODS OF TREATING LIVER DISEASES” (Camp4 Therapeutics Corporation, priority 2018, published 2022).

Assays:
[1] = tested on: PNPLA3 mRNA; experiment: qRT-PCR of PNPLA3 mRNA in compound-treated primary human hepatocytes; conditions: for Relative PNPLA3 mRNA expression: primary human hepatocytes, Table 35; for mrna remaining at 1 µM / mrna remaining at 10 µM: Homo sapiens, Hepatocyte
[2] = tested on: PNPLA3 mRNA; experiment: qRT-PCR of PNPLA3 mRNA in human primary hepatic stellate cells; type: cell-based; conditions: for Relative PNPLA3 mRNA levels RQ: hepatic stellate cells; for Relative PNPLA3 mRNA expression: stellate cells, Table 37
[3] = tested on: PNPLA3 mRNA; experiment: qRT-PCR of PNPLA3 mRNA in compound-treated mouse hepatocytes; type: cell-based
[4] = tested on: COL1A1 mRNA; experiment: qRT-PCR of COL1A1 mRNA in human primary hepatic stellate cells; type: cell-based; conditions: hepatic stellate cells
[5] = tested on: PNPLA3 expression; experiment: RNA-seq of compound-treated primary human hepatocytes; type: cell-based; conditions: PNPLA3 expression, RNA-seq
Experimental: Cryopreserved hepatocytes were cultured in plating media for 16 hours, transferred to maintenance media for 4 hours. Cultured on serum-free media for 2 hours, then a compound was added. The hepatocytes were maintained on the serum-free media for 16 hours prior to gene expression analysis.
Human hepatocytes cultured as described above were plated in 24-well format, adding 375,000 cells per well in a volume of 500 μl plating medium. Four hours before treatment, cells were washed with PBS and the medium was changed to either: fresh maintenance medium (complete) or modified maintenance medium.
Compound stocks were prepared at 1000× final concentration and added in a 2-step dilution to the medium to reduce risk of a compound precipitating out of solution when added to the cells, and to ensure reasonable pipetting volumes. One at a time, each compound was first diluted 10-fold in warm (about 37° C.) modified maintenance medium (initial dilution=ID), mixed by vortexing, and the ID was diluted 100-fold into the cell culture (e.g. 5.1 μl into 1 well of a 24-well plate containing 0.5 mL medium). The plate was mixed by carefully swirling and after all wells were treated and returned to the incubator overnight. If desired, separate plates/wells were treated with vehicle-only controls and/or positive controls. If using multi-well plates, controls were included on each plate. After about 18 hours, cells were harvested for further analysis, e.g., ChIP-seq, RNA-seq, ATAC-seq, etc.
The expression level of each gene was quantified with normalized FPKM (fragments per kilobase of exon per million mapped fragments). The differentially expressed genes were called using Cuffdiff v2.2.1 with q value<0.01 and log2 fold change>=1 or <=−1.
To identify small molecules that modulate PNPLA3, primary human hepatocytes were prepared as a monoculture, and at least one small molecule compound was applied to the cells.
RNA-seq was performed to determine the effects of the compounds on PNPLA3 expression in hepatocytes. Fold change was calculated by dividing the level of expression in the cell system that had been perturbed by the level of expression in an unperturbed system. Changes in expression having a p-value≤0.05 were considered significant.

CN(c1ncccc1CNc1nc(Nc2ccc3c(c2)CC(=O)N3)ncc1C(F)(F)F)S(C)(=O)=O [PF-00562271]
PNPLA3 mRNA remaining after treatment compared to untreated cells ([1]; H Hep Donor-2, 10 uM): 0.34
PNPLA3 mRNA remaining after treatment compared to untreated cells ([1]; H Hep Donor-3, 10 uM): 0.2
PNPLA3 mRNA remaining after treatment compared to untreated cells ([1]; H Hep Donor-4, 10 uM): 0.5
PNPLA3 mRNA remaining after treatment compared to untreated cells ([1]; H Hep Donor-5, 1 uM): 1
PNPLA3 mRNA remaining after treatment compared to untreated cells ([1]; H Hep Donor-5, 10 uM): 0.25
PNPLA3 mRNA remaining after treatment compared to untreated cells ([2]; Human Stellate, 1 uM): 1
PNPLA3 mRNA remaining after treatment compared to untreated cells ([2]; Human Stellate, 10 uM): 0.18
PNPLA3 mRNA remaining after treatment compared to untreated cells ([3]; Mouse hepatocytes, 10 uM): 0.27

CC(C)n1nc(-c2cc3cc(O)ccc3[nH]2)c2c(N)ncnc21 [PP242, Torkinib]
Relative PNPLA3 mRNA levels [1]: 0.50 ± 0.02
Relative PNPLA3 mRNA levels RQ ([2]; 0.01 μM): 1.07
Relative PNPLA3 mRNA levels RQ ([2]; 0.1 μM): 0.74
Relative PNPLA3 mRNA levels RQ ([2]; 1 μM): 0.39
Relative PNPLA3 mRNA levels RQ ([2]; 10 μM): 0.63
Relative COL1A1 mRNA levels RQ ([4]; 0.01 μM): 1.09
Relative COL1A1 mRNA levels RQ ([4]; 0.1 μM): 1.02
Relative COL1A1 mRNA levels RQ ([4]; 1 μM): 0.40
Relative COL1A1 mRNA levels RQ ([4]; 10 μM): 0.18
Relative PNPLA3 mRNA levels ([3]; mouse hepatocytes, 1 μM, normalized to ACTB): 0.44 ± 0.10

NS(=O)(=O)C#Cc1ccccc1 [Pifithrin-μ, 2-Phenylethynesulfonamide]
Fold change (Log 2) vs untreated [5]: −0.68

COc1cc(Nc2ncc(F)c(Nc3ccc4c(n3)N(COP(=O)([O-])[O-])C(=O)C(C)(C)O4)n2)cc(OC)c1OC.[Na+].[Na+] [R788, fostamatinib disodium hexahydrate]
Relative PNPLA3 mRNA levels ([1]; Syk pathway inhibitors, 10 μM, human hepatocytes, normalized to B2M, mean of three replicates ± standard deviation): 0.77 ± 0.02
Fold change (Log 2) vs untreated [5]: −1.38

COc1cc2c(cc1OC)CN(C(=O)/C=C/c1c(-c3ccccc3)n(C)c3ncccc13)CC2 [SIS3]
PNPLA3 mRNA remaining after treatment compared to untreated cells ([1]; H Hep Donor-1, 10 uM): 0.2
PNPLA3 mRNA remaining after treatment compared to untreated cells ([1]; H Hep Donor-2, 10 uM): 0.55
Relative PNPLA3 mRNA expression ([1]; 3.3 uM): 1.358 ± 0.3303
Relative PNPLA3 mRNA expression ([1]; 10 uM): 1.011 ± 0.2574
Relative PNPLA3 mRNA expression ([2]; 0.01 uM): 1.49 ± 0.09
Relative PNPLA3 mRNA expression ([2]; 0.1 uM): 1.38 ± 0.19
Relative PNPLA3 mRNA expression ([2]; 1 uM): 0.77 ± 0.03
Relative PNPLA3 mRNA expression ([2]; 10 uM): 7.95 ± 2.29
PNPLA3 mRNA remaining after treatment compared to untreated cells ([3]; Mouse hepatocytes, 10 uM): 0.50

CC(C)c1cc(CNc2nc(Nc3cc(C4CC4)[nH]n3)cc(N3CCN(C)CC3)n2)on1 [XL228]
mrna remaining at 1 µM ([1]; read-out: PNPLA3 mRNA remaining after treatment compared to untreated cells, H Hep Donor-1, 1 uM (stated in cell)): 40%
mrna remaining at 10 µM ([1]; read-out: PNPLA3 mRNA remaining after treatment compared to untreated cells, H Hep Donor-3, 10 uM): 30%
mrna remaining at 1 µM ([1]; read-out: PNPLA3 mRNA remaining after treatment compared to untreated cells, H Hep Donor-4, 1 uM): 55%
mrna remaining at 10 µM ([1]; read-out: PNPLA3 mRNA remaining after treatment compared to untreated cells, H Hep Donor-4, 10 uM): 55%
mrna remaining at 1 µM ([1]; read-out: PNPLA3 mRNA remaining after treatment compared to untreated cells, H Hep Donor-5, 1 uM): 55%
mrna remaining at 10 µM ([1]; read-out: PNPLA3 mRNA remaining after treatment compared to untreated cells, H Hep Donor-5, 10 uM): 25%
mrna remaining at 1 µM ([2]; Human Stellate, 1 uM, read-out: PNPLA3 mRNA remaining after treatment compared to untreated cells): 80%
mrna remaining at 10 µM ([2]; Human Stellate, 10 uM, read-out: PNPLA3 mRNA remaining after treatment compared to untreated cells): 70%
mrna remaining at 1 µM ([3]; Hepatocyte, Mouse hepatocytes, 1 uM, read-out: PNPLA3 mRNA remaining after treatment compared to untreated cells): 40%
mrna remaining at 10 µM ([3]; Hepatocyte, Mouse hepatocytes, 10 uM, read-out: PNPLA3 mRNA remaining after treatment compared to untreated cells): 12%

CN1C(=O)c2sccc2N(C)c2nc(Nc3ccc(S(N)(=O)=O)cc3)ncc21 [XMU-MP-1]
Fold change (Log 2) vs untreated [5]: −0.66
